Assay results: patent publication US11980188B2, “Spiro cyclohexanedione derivates as herbicides” (SYNGENTA PARTICIPATIONS AG, priority 2018, dated 2024)

Columns and labels:
Experiment in all cases: Glasshouse herbicide test, pre- and post-emergence, percentage damage
Format in all cases: in vivo
[1] = system: Avena fatua (AVEFA); details: 250 g/h, evaluated after 13 days, percentage damage on five point scale; for AVEFA POST: post-emergence; for AVEFA PRE: pre-emergence
Method: (§1) Seeds of a variety of test species are sown in standard soil in pots (Lolium perenne (LOLPE), Setaria faberi (SETFA), Alopecurus myosuroides (ALOMY), Echinochloa crus-galli (ECHCG), Avena fatua (AVEFA)). After cultivation for one day (pre-emergence) or after 8 days cultivation (post-emergence) under controlled conditions in a glasshouse (at 24/16° C., day/night; 14 hours light; 65% humidity), the plants are sprayed with an aqueous spray solution derived from the formulation of the technical active ingredient in acetone/water (50:50) solution containing 0.5% Tween 20 (polyoxyethelyene sorbitan monolaurate, CAS RN 9005-64-5). Compounds are applied at […]. The test plants are then grown in a glasshouse under controlled conditions in a glasshouse (at 24/16° C., day/night; 14 hours light; 65% humidity) and watered twice daily. After 13 days for pre and post-emergence, the test is evaluated for the percentage damage caused to the plant. The biological activities are shown in the following table on a five point scale (5=80-100%; 4=60-79%; 3=40-59%; 2=20-39%; 1=0-19%).

[2] = system: Setaria faberi (SETFA); details: 250 g/h, evaluated after 13 days, percentage damage on five point scale; for SETFA POST: post-emergence; for SETFA PRE: pre-emergence
Method: as §1

[3] = system: Lolium perenne (LOLPE); details: 250 g/h, evaluated after 13 days, percentage damage on five point scale; for LOLPE POST: post-emergence; for LOLPE PRE: pre-emergence
Method: as §1

[4] = system: Alopecurus myosuroides (ALOMY); details: 250 g/h, evaluated after 13 days, percentage damage on five point scale; for ALOMY POST: post-emergence; for ALOMY PRE: pre-emergence
Method: as §1

[5] = system: Echinochloa crus-galli (ECHCG); details: 250 g/h, evaluated after 13 days, percentage damage on five point scale; for ECHCG POST: post-emergence; for ECHCG PRE: pre-emergence
Method: as §1

SMILES | AVEFA POST [1] | AVEFA PRE [1] | SETFA POST [2] | SETFA PRE [2] | LOLPE POST [3] | LOLPE PRE [3] | ALOMY POST [4] | ALOMY PRE [4] | ECHCG POST [5] | ECHCG PRE [5]
CON1CCC2(CC1)CC(=O)C(c1c(C)cc(-n3cc(Cl)cn3)cc1C)C(=O)C2 [Compound A5] | 5 (5=80-100%) | 5 (5=80-100%) | 5 (5=80-100%) | 5 (5=80-100%) | 5 (5=80-100%) | 5 (5=80-100%) | 5 (5=80-100%) | 5 (5=80-100%) | 5 (5=80-100%) | 5 (5=80-100%)
CC(=O)N1CCC2(CC1)CC(=O)C(c1c(C)cc(-n3cc(F)cn3)cc1C)C(=O)C2 [Compound A47] | 5 (5=80-100%) | 4 (4=60-79%) | 5 (5=80-100%) | 4 (4=60-79%) | 5 (5=80-100%) | 4 (4=60-79%) | 5 (5=80-100%) | 2 (2=20-39%) | 1 (1=0-19%) | 3 (3=40-59%)
Cc1cc(-c2ncc(F)cn2)cc(C)c1C1C(=O)CC2(CCN(C(=O)c3ccccn3)CC2)CC1=O [Compound A34] | 5 (5=80-100%) | 5 (5=80-100%) | 5 (5=80-100%) | 5 (5=80-100%) | 5 (5=80-100%) | 5 (5=80-100%) | 5 (5=80-100%) | 5 (5=80-100%) | 5 (5=80-100%) | 5 (5=80-100%)
COc1cc(-c2ncc(F)cn2)cc(OC)c1C1C(=O)CC2(CCN(C(C)=O)CC2)CC1=O [Compound A15] | 5 (5=80-100%) | 5 (5=80-100%) | 5 (5=80-100%) | 5 (5=80-100%) | 5 (5=80-100%) | 5 (5=80-100%) | 5 (5=80-100%) | 5 (5=80-100%) | 5 (5=80-100%) | 5 (5=80-100%)
Cc1cc(-c2ncc(F)cn2)cc(C)c1C1C(=O)CC2(CCN(C(=O)C3CC3)CC2)CC1=O [Compound A38] | 5 (5=80-100%) | 5 (5=80-100%) | 5 (5=80-100%) | 5 (5=80-100%) | 5 (5=80-100%) | 5 (5=80-100%) | 5 (5=80-100%) | 5 (5=80-100%) | 5 (5=80-100%) | 5 (5=80-100%)
COCC(=O)N1CCC2(CC1)CC(=O)C(c1c(C)cc(-c3ccc(F)cc3)cc1C)C(=O)C2 [Compound A56] | 5 (5=80-100%) | 5 (5=80-100%) | 5 (5=80-100%) | 5 (5=80-100%) | 5 (5=80-100%) | 5 (5=80-100%) |  | 5 (5=80-100%) | 5 (5=80-100%) | 5 (5=80-100%)
CC(=O)N1CCC2(CC1)CC(=O)C(c1c(C)cc(-c3ccc(Cl)cc3)cc1C)C(=O)C2 [Compound A49] | 5 (5=80-100%) | 5 (5=80-100%) | 5 (5=80-100%) | 5 (5=80-100%) | 5 (5=80-100%) | 5 (5=80-100%) | 5 (5=80-100%) | 5 (5=80-100%) | 5 (5=80-100%) | 5 (5=80-100%)
Cc1cc(-c2ncc(F)cn2)cc(C)c1C1C(=O)CC2(CCN(C(=O)NC(=O)C(C)(C)C)CC2)CC1=O [Compound A37] | 5 (5=80-100%) | 5 (5=80-100%) | 5 (5=80-100%) | 5 (5=80-100%) | 5 (5=80-100%) | 5 (5=80-100%) | 5 (5=80-100%) | 5 (5=80-100%) |  | 5 (5=80-100%)
Cc1cc(-c2ccc(F)cc2)cc(C)c1C1C(=O)CC2(CCN(C(=O)C(F)F)CC2)CC1=O [Compound A60] | 5 (5=80-100%) | 5 (5=80-100%) | 5 (5=80-100%) | 5 (5=80-100%) | 5 (5=80-100%) | 5 (5=80-100%) |  | 5 (5=80-100%) | 5 (5=80-100%) | 5 (5=80-100%)
Cc1cc(-c2ccc(F)cc2)cc(C)c1C1C(=O)CC2(CCN(C(=O)CC#N)CC2)CC1=O [Compound A63] | 5 (5=80-100%) | 5 (5=80-100%) | 5 (5=80-100%) | 5 (5=80-100%) | 5 (5=80-100%) | 5 (5=80-100%) |  | 5 (5=80-100%) | 4 (4=60-79%) | 5 (5=80-100%)
Cc1cc(-c2ccc(C#N)cn2)cc(C)c1C1C(=O)CC2(CCN(C(=O)NC(=O)c3ccccn3)CC2)CC1=O [Compound A31] | 5 (5=80-100%) |  | 5 (5=80-100%) | 1 (1=0-19%) | 5 (5=80-100%) | 1 (1=0-19%) | 5 (5=80-100%) | 1 (1=0-19%) | 5 (5=80-100%) | 3 (3=40-59%)
CC(=O)N1CCC2(CC1)CC(=O)C(c1c(C)cc(-n3cc(Cl)cn3)cc1C)C(=O)C2 [Compound A19] | 5 (5=80-100%) | 5 (5=80-100%) | 5 (5=80-100%) | 3 (3=40-59%) | 5 (5=80-100%) | 4 (4=60-79%) | 5 (5=80-100%) | 2 (2=20-39%) | 4 (4=60-79%) | 1 (1=0-19%)
CC(=O)N1CCC2(CC1)CC(=O)C(c1c(C)cc(-c3ncc(F)cc3F)cc1C)C(=O)C2 [Compound A48] | 5 (5=80-100%) | 5 (5=80-100%) | 5 (5=80-100%) | 5 (5=80-100%) | 5 (5=80-100%) | 5 (5=80-100%) | 5 (5=80-100%) | 5 (5=80-100%) | 5 (5=80-100%) | 5 (5=80-100%)
CON1CCC2(CC1)CC(=O)C(c1c(C)cc(-c3ccc(C#N)cn3)cc1C)C(=O)C2 [Compound A3] | 5 (5=80-100%) | 5 (5=80-100%) | 5 (5=80-100%) | 5 (5=80-100%) | 5 (5=80-100%) | 5 (5=80-100%) | 5 (5=80-100%) | 5 (5=80-100%) | 5 (5=80-100%) | 5 (5=80-100%)
Cc1cc(-c2ccc(C#N)cn2)cc(C)c1C1C(=O)CC2(CCN(C(=O)c3ccccc3)CC2)CC1=O [Compound A23] | 5 (5=80-100%) | 5 (5=80-100%) | 5 (5=80-100%) | 5 (5=80-100%) | 5 (5=80-100%) | 5 (5=80-100%) | 5 (5=80-100%) | 5 (5=80-100%) | 5 (5=80-100%) | 5 (5=80-100%)
